Measurements from US20230331718A1, “COMPOSITIONS FOR MODULATING SPLICING” (Skyhawk Therapeutics, Inc., priority 2020, published 2023).

Legend:
[1] = tested on: SMN2 Splicing D7 (SMN Δ7 transcript); assay: SMN Quantitative Splicing Assay (qPCR); format: cell-based, human; settings: 24 h, SMA patient fibroblasts (GM03813), 2.5 µM to 0.6 nM
Procedure: Spinal muscular atrophy (SMA) patient fibroblasts (GM03813, Coriell) were plated in 96-well plates at 50,000 cells/well. […] Treated cells were lysed and cDNA synthesized using the Fast Advanced Cells-to-Ct kit (Thermofisher A35378) according to the manufacturer’s instructions. 2 µL of each cDNA were used in qPCR reactions. […] Reactions were run in a Quant Studio 6 qPCR instrument with default settings.

[2] = tested on: SMN2 Protein; assay: SMN Protein Assay (MSD); format: cell-based, human; settings: SMA patient fibroblasts, 48 hours, 0.6 nM to 2.5 µM
Procedure: Spinal muscular atrophy (SMA) patient fibroblasts were plated in 96-well plates at 7,000 cells/well. Compounds were added in concentrations ranging from 0.6 nM to 2.5 µM, incubated for 48 hours and the cells were lysed with 100 µL of lysis buffer. 20 µL of lysate was used for SMN protein measurement by Mesoscale Discovery (MSD) assay developed by PharmOptima (Michigan). A standard curve prepared with SMN protein ranging from 1 µg/ml to 19.5pg/ml was used in each MSD plate to calculate the absolute SMN protein amount in each sample.

| Structure (SMILES) | IC50 ([1]; Homo sapiens, Fibroblast) | EC50 [2] | IC50 [1] |
| --- | --- | --- | --- |
| CN(c1cnc(-c2cc3cnn(C)c(=O)c3cc2O)nn1)C1CC2COCC(C1)N2 (stereo not shown) [Compound 149] | 0.01 to 15 nM | 51 to 100 nM | – |
| Cc1cc2cc(O)c(-c3ncc(N(C)[C@H]4CC5CCC(N5)[C@H]4F)nn3)cc2cn1 (stereo partly shown) [Compound 46] | 0.01 to 15 nM | 0.01 to 15 nM | – |
| CN(c1cnc(-c2cc3c(F)cn(C)c(=O)c3cc2O)nn1)[C@@H]1CC2CC[C@](C)(N2)[C@@H]1F [Compound 188] | 0.01 to 15 nM | 0.01 to 15 nM | – |
| CN(c1cnc(-c2cc3ccn(C)c(=O)c3cc2O)nn1)[C@H]1C[C@@H]2CC[C@@](C)(N2)[C@H]1F [Compound 171] | 0.01 to 15 nM | 0.01 to 15 nM | – |
| CN(c1cnc(-c2cc3ccn(C)c(=O)c3cc2O)nn1)[C@@H]1CC2CC[C@](C)(N2)[C@@H]1F [Compound 172] | 0.01 to 15 nM | 0.01 to 15 nM | – |
| CN(c1cnc(-c2cc3cnn(C)c(=O)c3cc2O)nn1)[C@H]1C[C@]2(C)CCC(N2)[C@H]1F [Compound 185] | 0.01 to 15 nM | 0.01 to 15 nM | – |
| Cc1coc2cc(-c3ncc(N(C)[C@H]4CC5CCCC(N5)[C@H]4F)nn3)c(O)cc2c1=O (stereo partly shown) [Compound 102] | 0.01 to 15 nM | 0.01 to 15 nM | – |
| CN(c1cnc(-c2cc3c(=O)n(C)ccc3cc2O)nn1)[C@@H]1CC2CC[C@H](N2)[C@@H]1F [Compound 81] | 51 to 100 nM | 16 to 50 nM | – |
| CN(c1cnc(-c2cc3ncn(C)c(=O)c3cc2O)nn1)[C@H]1C[C@]2(C)COC[C@](C)(C1)N2 [Compound 150] | 0.01 to 15 nM | 0.01 to 15 nM | – |
| CN(c1cnc(-c2cc3occ(C(F)(F)F)c(=O)c3cc2O)nn1)[C@@H]1C[C@H]2CC[C@H](N2)[C@@H]1F [Compound 89] | 101 to 500 nM | 51 to 100 nM | – |
| CCn1cc(F)c2cc(-c3ncc(N(C)[C@H]4C[C@@H]5CCC(N5)[C@H]4F)nn3)c(O)cc2c1=O [Compound 163, 2-Ethyl-4-fluoro-6-(6-{[(2R,3S,5S)-2-fluoro-8-azabicyclo[3.2.1]octan-3-yl](methyl)amino}-1,2,4-triazin-3-yl)-7-hydroayisoquinolin-1-one] | 0.01 to 15 nM | 0.01 to 15 nM | – |
| [2H]C([2H])([2H])n1nc(F)c2cc(-c3ncc(N(C)[C@H]4C[C@@H]5CCC(N5)[C@H]4F)nn3)c(O)cc2c1=O [Compound 191] | 0.01 to 15 nM | 0.01 to 15 nM | – |
| CCC1C[C@@H](N(C)c2cnc(-c3cc4oc(C(F)(F)F)c(C)c(=O)c4cc3O)nn2)[C@@H](F)[C@H](C)N1 (stereo partly shown) [Compound 79] | 101 to 500 nM | 16 to 50 nM | – |
| CN(c1cnc(-c2cc3c(F)cn(C)c(=O)c3cc2O)nn1)C1CC2CCCC(N2)[C@H]1F (stereo partly shown) [Compound 137] | 0.01 to 15 nM | 0.01 to 15 nM | – |
| CCn1cc(F)c2cc(-c3ncc(N(C)[C@@H]4CC5CC(F)(F)C(C4)N5)nn3)c(O)cc2c1=O (stereo partly shown) [Compound 211] | 101 to 500 nM | 501 to 10000 nM | – |
| CN(c1cnc(-c2cc3c(F)cn(C)c(=O)c3cc2O)nn1)[C@@H]1CC2CC(F)(F)C(C1)N2 (stereo partly shown) [Compound 209] | 51 to 100 nM | 101 to 500 nM | – |
| CCN1C=C(F)c2cc(-c3ncc(N(C)[C@@H]4CC5CCC(N5)[C@@H]4F)nn3)c(O)cc2O1 (stereo partly shown) [Compound 162] | 51 to 100 nM | 0.01 to 15 nM | – |
| CCn1cnc2cc(-c3ncc(N(C)C4CC5CCCC(N5)C4F)nn3)c(O)cc2c1=O (stereo not shown) [Compound 126] | 101 to 500 nM | 51 to 100 nM | – |
| Cc1cc(=O)c2cc(-c3ncc(N(C)[C@@H]4CC5CCCC(N5)[C@@H]4F)nn3)c(O)cc2o1 (stereo partly shown) [Compound 111] | 101 to 500 nM | 51 to 100 nM | – |
| Cc1cc2cc(O)c(-c3ncc(N(C)[C@@H]4CC5CCC(N5)[C@@H]4F)nn3)cc2cn1 (stereo partly shown) [Compound 45] | 16 to 50 nM | 16 to 50 nM | – |
| Cc1cc2cc(O)c(-c3ncc(N(C)[C@@H]4CC5CCC[C@H](N5)[C@@H]4F)nn3)cc2cn1 [Compound 77] | 16 to 50 nM | 16 to 50 nM | – |
| CCn1c(C)nc2cc(-c3ncc(N(C)[C@H]4CC5CC(F)(F)C(C4)N5)nn3)c(O)cc2c1=O (stereo partly shown) [Compound 215] | 16 to 50 nM | 16 to 50 nM | – |
| CN(c1cnc(-c2cc3ncn(C)c(=O)c3cc2O)nn1)C1CC2CC[C@](C)(N2)[C@@H]1F (stereo partly shown) [Compound 135] | 0.01 to 15 nM | 0.01 to 15 nM | – |
| CN(c1cnc(-c2cc3cnn(C)c(=O)c3cc2O)nn1)[C@@H]1CC2CCC(N2)[C@@H]1F (single isomer, unassigned) [Compound 2A] | 0.01 to 15 nM | 0.01 to 15 nM | – |
| CCn1ccc2cc(-c3ncc(N(C)C4CC5CCC(N5)[C@@H]4F)nn3)c(O)cc2c1=O (stereo partly shown) [Compound 33] | 101 to 500 nM | 16 to 50 nM | – |
| CCn1cnc2cc(-c3ncc(N(C)[C@H]4CC5CCC[C@@H](N5)[C@H]4F)nn3)c(O)cc2c1=O [Compound 125] | 0.01 to 15 nM | 16 to 50 nM | – |
| CN(c1cnc(-c2cc3ccn(C)c(=O)c3cc2O)nn1)C1CC2CC(F)(F)C(C1)N2 (stereo not shown) [Compound 142] | – | 0.01 to 15 nM | 16 to 50 nM |

| Structure (SMILES) | IC50 ([1]; Homo sapiens, Fibroblast) | EC50 [2] | IC50 [1] |
| --- | --- | --- | --- |
| Cc1nc2cc(O)c(-c3ncc(N(C)[C@H]4C[C@]5(C)CC[C@@](C)(N5)[C@H]4F)nn3)cc2nc1C [Compound 87] | 0.01 to 15 nM | 0.01 to 15 nM | – |
| Cc1cc(=O)c2cc(-c3ncc(N(C)[C@H]4C[C@@H]5CCC[C@@H](N5)[C@H]4F)nn3)c(O)cc2o1 [Compound 112] | 16 to 50 nM | 16 to 50 nM | – |
| CN(c1cnc(-c2cc3ncn(C)c(=O)c3cc2O)nn1)C1CC2CC(F)(F)C(C1)N2 (stereo not shown) [Compound 144] | – | 0.01 to 15 nM | 0.01 to 15 nM |
| CN(c1cnc(-c2cc3c(=O)ccoc3cc2O)nn1)[C@@H]1CC2CCCC(N2)[C@@H]1F (stereo partly shown) [Compound 109] | 501 to 10000 nM | 501 to 10000 nM | – |
| CN(c1cnc(-c2cc3ccn(C(F)F)c(=O)c3cc2O)nn1)[C@H]1CC2CCC(N2)[C@H]1F (stereo partly shown) [Compound 155] | 0.01 to 15 nM | 0.01 to 15 nM | – |
| CN(c1cnc(-c2cc3ncn(C)c(=O)c3cc2O)nn1)[C@H]1CC2CCC(N2)[C@H]1F (single isomer, unassigned) [Compound 3B] | 0.01 to 15 nM | 0.01 to 15 nM | – |
| CN(c1cnc(-c2cc3ccn(C)c(=O)c3cc2O)nn1)[C@H]1C[C@]2(C)CCC(N2)[C@H]1F [Compound 173] | 16 to 50 nM | 16 to 50 nM | – |
| CCn1ccc2cc(-c3ncc(N(C)C4CC5CCCC(N5)C4F)nn3)c(O)cc2c1=O (stereo not shown) [Compound 122] | 51 to 100 nM | 501 to 10000 nM | – |
| CN(c1cnc(-c2cc3ncn(C)c(=O)c3cc2O)nn1)C1CC2CCCC(N2)C1F (stereo not shown) [Compound 123] | 0.01 to 15 nM | 0.01 to 15 nM | – |
| [2H]C([2H])([2H])N(c1cnc(-c2cc3ncn(C([2H])([2H])[2H])c(=O)c3cc2O)nn1)[C@H]1C[C@@H]2CCC(N2)[C@H]1F [Compound 175] | 0.01 to 15 nM | 0.01 to 15 nM | – |
| [2H]C([2H])([2H])n1ncc2cc(-c3ncc(N(C)[C@@H]4CC5CC[C@H](N5)[C@@H]4F)nn3)c(O)cc2c1=O [Compound 182] | 0.01 to 15 nM | 0.01 to 15 nM | – |
| CN(c1cnc(-c2cc3cnn(C)c(=O)c3cc2O)nn1)C1CC2CCCC(N2)C1F (stereo not shown) [Compound 131] | – | 0.01 to 15 nM | 0.01 to 15 nM |
| CN(c1cnc(-c2cc3occc(=O)c3cc2O)nn1)C1CC2CCC(N2)C1F (stereo not shown) [Compound 17] | 16 to 50 nM | 16 to 50 nM | – |
| CN(c1cnc(-c2cc3cnn(C)c(=O)c3cc2O)nn1)[C@H]1CC2CCC(N2)[C@H]1F (single isomer, unassigned) [Compound 2B] | 0.01 to 15 nM | 0.01 to 15 nM | – |
| Cc1cnc2cc(-c3ncc(N(C)[C@H]4CC5CCCC(N5)[C@H]4F)nn3)c(O)cc2n1 (stereo partly shown) [Compound 106] | 16 to 50 nM | 0.01 to 15 nM | – |
| CCn1ccc2cc(O)c(-c3ncc(N(C)[C@@H]4C[C@H]5CCC(N5)[C@@H]4F)nn3)cc2c1=O [Compound 83] | 101 to 500 nM | 16 to 50 nM | – |
| Cc1cnc2cc(O)c(-c3ncc(N(C)[C@@H]4CC5CCCC(N5)[C@@H]4F)nn3)cc2n1 (stereo partly shown) [Compound 159] | 16 to 50 nM | 0.01 to 15 nM | – |
| CN(c1cnc(-c2cc3ccncc3cc2O)nn1)C1CC2CCC(N2)[C@H]1F (stereo partly shown) [Compound 22] | 16 to 50 nM | 0.01 to 15 nM | – |
| CN(c1cnc(-c2cc3c(F)cn(C)c(=O)c3cc2O)nn1)[C@H]1CC2CC(F)(F)C(C1)N2 (stereo partly shown) [Compound 210] | 0.01 to 15 nM | 0.01 to 15 nM | – |
| CN(c1cnc(-c2cc3ccn(C)c(=O)c3cc2O)nn1)[C@H]1C[C@]2(C)COC[C@](C)(C1)N2 [Compound 152] | 0.01 to 15 nM | 0.01 to 15 nM | – |
| CN(c1cnc(-c2cc3cnccc3cc2O)nn1)[C@H]1C[C@@H]2CC[C@@H](N2)[C@H]1F (single isomer, unassigned) [Compound 5B] | 16 to 50 nM | 0.01 to 15 nM | – |
| CCc1cc(=O)c2cc(-c3ncc(N(C)[C@H]4C[C@@H]5CCCC(N5)[C@H]4F)nn3)c(O)cc2o1 [Compound 116] | 51 to 100 nM | 16 to 50 nM | – |
| Cc1ncc2cc(-c3ncc(N(C)[C@H]4C[C@@H]5CCC(N5)[C@H]4F)nn3)c(O)cc2n1 [Compound 72] | 51 to 100 nM | 51 to 100 nM | – |
| CN(c1cnc(-c2cc3ncn(C)c(=O)c3cc2O)nn1)C1C[C@]2(C)CCC(N2)[C@H]1F (stereo partly shown) [Compound 36] | 16 to 50 nM | 16 to 50 nM | – |
| CN(c1cnc(-c2cc3c(F)cn(C)c(=O)c3cc2O)nn1)[C@@H]1CC2CC[C@H](N2)[C@@H]1F [Compound 65] | 16 to 50 nM | 0.01 to 15 nM | – |
| CN(c1cnc(-c2cc3c(=O)ccoc3cc2O)nn1)[C@@H]1CC2CC[C@H](N2)[C@@H]1F [Compound 75] | 101 to 500 nM | 16 to 50 nM | – |
